This note sets out measurements from US8658383B2, “Sweet taste receptor-expressing construct, cell body expressing the same, and utilization thereof” (T. Hasegawa Co., Ltd., priority 2009, dated 2014).

In one test the target is T1, hT1R3 (Homo sapiens, UniProt Q7RTX0).
T1 construct: The sweet taste receptor subunits T1R2 and T1R3 include an entire part of each subunit
T1 sequence (Q7RTX0 21-852): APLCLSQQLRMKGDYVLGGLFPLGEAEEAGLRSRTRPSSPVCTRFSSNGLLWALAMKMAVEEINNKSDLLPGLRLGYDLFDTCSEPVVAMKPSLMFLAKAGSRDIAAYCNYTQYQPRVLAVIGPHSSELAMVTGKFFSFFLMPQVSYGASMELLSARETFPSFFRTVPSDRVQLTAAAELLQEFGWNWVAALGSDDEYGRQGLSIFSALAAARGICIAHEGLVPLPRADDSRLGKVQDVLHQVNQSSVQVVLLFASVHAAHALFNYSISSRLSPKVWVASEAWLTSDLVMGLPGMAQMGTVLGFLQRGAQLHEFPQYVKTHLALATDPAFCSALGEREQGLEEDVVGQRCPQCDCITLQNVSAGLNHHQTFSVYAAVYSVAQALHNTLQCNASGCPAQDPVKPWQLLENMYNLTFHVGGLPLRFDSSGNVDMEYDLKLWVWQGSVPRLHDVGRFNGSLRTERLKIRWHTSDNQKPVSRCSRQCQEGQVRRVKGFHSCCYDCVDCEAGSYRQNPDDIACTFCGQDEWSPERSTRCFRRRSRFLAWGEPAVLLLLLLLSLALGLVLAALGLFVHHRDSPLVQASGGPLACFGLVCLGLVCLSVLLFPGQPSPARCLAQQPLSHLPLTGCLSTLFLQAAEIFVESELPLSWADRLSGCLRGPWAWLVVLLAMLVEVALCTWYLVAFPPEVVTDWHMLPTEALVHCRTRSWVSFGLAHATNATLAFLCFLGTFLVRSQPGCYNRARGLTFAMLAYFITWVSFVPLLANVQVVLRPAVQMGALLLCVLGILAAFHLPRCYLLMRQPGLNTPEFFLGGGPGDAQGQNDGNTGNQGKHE
The experiment in a line: Fluorescent microscope calcium imaging (Fura-2 AM) of comparison cultured cell strain (D) expressing hT1R3 and hG16gust44 only. It is filed as cell-based. The following applies: Aspartame final concentration 10 mM, FIG. 11. The procedure: Each of the cultured cell strains (A) to (C) prepared in Example 4 was loaded with a fluorescent calcium indicator Fura-2 AM, and cells were prepared to take them in. Cells loaded with Fura-2 AM were excited at 340 nm and 380 nm, and a fluorescent image observed at 510 nm was taken using a fluorescent microscope and a CCD camera. While the image was taken, Aspartame at a final concentration of 10 mM was administered to cells and, thereafter, the image was continuously taken. From the field of the taken image, 100 cells were randomly selected, and the response cell number was counted.
As comparison, using an expression construct consisting of pcDNA5/FRT having a sequence in which a cDNA encoding hT1R3 and a cDNA encoding hG16gust44 are connected downstream of a CMV promoter, so that an IRES sequence is flanked by those cDNAs (FIG. 10), a cultured cell strain (D) was prepared similarly as in Example 4, and the response cell number was subjected to counting as described above.

In test [1] the target is T2, human sweet taste receptor (hT1R2+hT1R3) (Homo sapiens, UniProt Q7RTX0+Q8TE23).
T2 sequence (Q8TE23 20-839): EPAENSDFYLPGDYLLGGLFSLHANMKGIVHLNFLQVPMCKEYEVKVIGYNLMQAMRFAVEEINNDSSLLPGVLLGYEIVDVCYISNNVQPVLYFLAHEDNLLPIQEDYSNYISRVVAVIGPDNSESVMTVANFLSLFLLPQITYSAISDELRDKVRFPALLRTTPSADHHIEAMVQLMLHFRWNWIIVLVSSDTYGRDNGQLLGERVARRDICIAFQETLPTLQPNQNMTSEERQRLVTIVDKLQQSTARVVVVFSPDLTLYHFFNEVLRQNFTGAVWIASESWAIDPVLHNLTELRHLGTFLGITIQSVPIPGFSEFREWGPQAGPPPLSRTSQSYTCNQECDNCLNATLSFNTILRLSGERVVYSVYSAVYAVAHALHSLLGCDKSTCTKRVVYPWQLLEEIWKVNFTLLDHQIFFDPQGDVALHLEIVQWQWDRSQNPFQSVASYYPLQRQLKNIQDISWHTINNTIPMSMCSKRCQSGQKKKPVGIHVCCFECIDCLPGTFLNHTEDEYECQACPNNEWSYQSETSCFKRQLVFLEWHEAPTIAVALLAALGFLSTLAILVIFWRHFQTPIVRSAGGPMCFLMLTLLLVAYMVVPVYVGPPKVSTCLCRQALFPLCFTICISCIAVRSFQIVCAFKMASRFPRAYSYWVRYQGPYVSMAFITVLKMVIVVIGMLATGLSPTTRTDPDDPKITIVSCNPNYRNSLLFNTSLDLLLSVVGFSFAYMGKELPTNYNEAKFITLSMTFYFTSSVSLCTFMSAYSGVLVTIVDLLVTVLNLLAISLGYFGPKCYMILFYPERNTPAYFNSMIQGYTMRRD
T2 sequence (Q7RTX0 21-852): T1 sequence (Q7RTX0 21-852)
The experiment in a line: Automated fluorescent calcium imaging (Fluo-4 AM, FlexStation 3) of cultured cell strain (A). It is filed as cell-based. Set-up: The sweet taste receptor subunits T1R2 and T1R3 include an entire part of each subunit. The following applies: Average ± S.E., n = 2.

Residues, ends and D or L forms follow the SMILES beside them.

On to `COC(=O)[C@H](Cc1ccccc1)NC(=O)[C@@H](N)CC(=O)O` [aspartame] (H-Asp-Phe-OMe), for which the “cell response (response cell number of 100 randomly selected cells)” value on hT1R3 is “cell response was not observed”. Moreover, the “Change amount of fluorescent intensity (ΔF)” value is on record as 4.8 ± 0.1 in test [1] (aspartame 0.08 mM) and 31.1 ± 2.4 in test [1] (aspartame 5 mM).
